Assay results from patent US6110481A, “Controlled release device based on aqueous-organic partitioning in porous membranes” (Trustees of the Stevens Institute of Technology, priority 1994, dated 2000).

Tests used:
[1] = Distribution coefficient of benzoic acid between decanol and water; assay type: physicochemical
Text: Analytical solutions for non-coated, wetted fibers and for non-coated, non-wetted fibers were developed to predict the aqueous phase benzoic acid concentration as a function of time for nylon fibers as well as Celgard® X-20 […] and 400 μm I.D. fibers, both wetted and non-wetted. Predicted results were compared with experimental data (for wetted fibers only) in FIGS. 1, 2 and 3 for Celgard® X-20 240 μm I.D., Celgard® X-20 400 μm I.D. and Nylon 6 600 μm I.D. fibers, respectively. The hollow fiber dimensions and membrane porosities were supplied by the manufacturer. In the case of the silicone coated fibers, the coating thickness was estimated experimentally. The diffusivity of benzoic acid in decanol was estimated using the Wilke-Chang Equation. The diffusivity of benzoic acid in water was taken from Reid et al., Properties of Gases and Liquids, McGraw Hill Book Co., New York, 1977. […]
Aqueous phase benzoic acid concentration was analyzed by a Hewlett-Packard HPLC model 1090, using a Hypersil ODS C-18 reverse phase column. […] The distribution coefficient of benzoic acid between decanol and water was determined experimentally.

[2] = In vitro release from microporous hollow fibers into stirred water bath; assay type: physicochemical; settings: 1 μm silicone-coated 240 μm Celgard fibers (with and without wax coating), octanol; experimental vs predicted for uncoated fibers
Method: Hollow fibers prepared as such may then be assembled in any fashion intended for controlled release purposes. Preliminary testing of the release kinetics of a selected agent is carried out by immersing a length of the hollow fiber with sealed ends in a stirred water bath and measuring the concentration of the agent in the water bath as it increased with time.
A coating on the outer surface of the fiber provides additional resistance to mass transfer. […] The controlled release of benzoic acid using silicone-coatedhollow fibers (with and without an additional wax coating) and octanol is shown in FIGS. 4A and 4B. For both Figures, the predicted results are based on a 240 μm uncoated fiber with the same membrane thickness, porosity and tortuosity. In FIG. 4A, a 240 μm Celgard® fiber was coated with a 1 μm silicone coating. In FIG. 4B, a 240 μm Celgard® fiber was coated with a 1 μm silicone coating, and an additional wax coating. In both experiments, the solvent was octanol and the diffusing species, benzoic acid.
Aqueous phase benzoic acid concentration was analyzed by a Hewlett-Packard HPLC model 1090, using a Hypersil ODS C-18 reverse phase column. A 40% acetonitrile -60% water (w/w) carrier and UV detector at 254 nm were used. The samples were injected manually into a […] sample loop. […] The distribution coefficient of benzoic acid between decanol and water was determined experimentally. […]

[3] = from Reid et al., 1977, p. 576; cited from earlier work
[4] = glassy hydrogel matrix, solvent activation system; cited from earlier work

SMILES: O=C(O)c1ccccc1 [benzoic acid]
- distribution coefficient (m), ratio of equilibrium solute concentration in organic solvent over that in water [1]: ~50
- effect of fiber coating on time to approach steady state [2]: increases the time required for the system to approach steady state
- diffusion coefficient in water [3]: 1.2 × 10^-5 cm^2 /s
- release kinetics [4]: zero order release kinetics

SMILES: Cn1c(=O)c2[nH]cnc2n(C)c1=O [theophylline]
- release kinetics [4]: zero order release kinetics
